Results reported in ChEMBL document CHEMBL1152450 (J Med Chem, 2009).

Experiments:
[1] = system: SARS-CoV; experiment: Antiviral activity against SARS coronavirus in african green monkey Vero E6 cells assessed as inhibition of replication after 48 hrs; type: functional, organism-based, Severe acute respiratory syndrome-related coronavirus
[2] = Inhibition of SARS coronavirus PLpro residues 1541-1855 expressed in Escherichia coli; set-up: species or system Severe acute respiratory syndrome-related coronavirus
[3] = Severe acute respiratory syndrome-related coronavirus, Vero, 48 h, read-out: EC50

Structure (SMILES) | EC50 ([1]; vero) | IC50 [2] | also measured
Cc1ccc(CNC(=O)OC(C)(C)C)cc1C(=O)N[C@H](C)c1cccc2ccccc12 | Not Active |  | 
Cc1ccccc1C(=O)N[C@H](C)c1ccc2ccccc2c1 | Not Active |  | 
Cc1ccc(N)cc1C(=O)NC(C)(C)c1cccc2ccccc12 | Not Active |  | 
C[C@@H](NC(=O)c1ccccc1O)c1ccc2ccccc2c1 |  | Not Active | 
CNCc1ccc(C)c(C(=O)N[C@H](C)c2cccc3ccccc23)c1 |  |  | EC50 [1, 3]: 5.2 µM
Cc1cccc(C(=O)N[C@H](C)c2ccc3ccccc3c2)c1 | Not Active |  | 
Cc1ccc(CN)cc1C(=O)N[C@H](C)c1cccc2ccccc12 |  |  | EC50 [1, 3]: 6 µM
C[C@@H](NC(=O)c1ccc(NC(=O)OC(C)(C)C)cc1)c1ccc2ccccc2c1 |  | Not Active | 
CCC(NC(=O)c1ccccc1C)c1ccc2ccccc2c1 (racemic) |  | Not Active | 
Cc1ccccc1C(=O)NC(C)c1ccc2ccccc2c1 (racemic) | Not Active |  | 
Cc1ccccc1C(=O)NC(c1ccccc1)c1ccc2ccccc2c1 (racemic) |  | Not Active | 
